Results reported in patent US11053468B2, “Multiwell cell culture system having rotating shafts for mixing culture media and method of use thereof” (The Johns Hopkins University, priority 2015, dated 2021).

How the values were obtained:
forebrain organoids [1] = assay: Signaling-molecule treatment of embryoid bodies during the Matrigel stage, activated caspase-3 (CAS3) immunostaining; assay type: cell-based, human; settings: for number of CAS3+ cells at day 14: combined treatment with the three factors CHIR99021, WNT3A and SB-431542 during the Matrigel stage
Source text: To reduce tissue heterogeneity, we pre-patterned embryoid bodies to the fate of a specific brain region. We first treated human iPSCs with dual SMAD inhibitors (dorsomorphin and A-83) for 7 days and then embedded embryoid bodies in Matrigel for another 7 days, followed by Matrigel removal and spinning in SpinΩ (FIG. 12). Compared to the “intrinsic protocol,” we could reliably generate organoids from multiple iPSC lines with reduced heterogeneity in organoid shape and size (data not shown). However, there was significant cell death within organoids, as shown by activated caspase-3 (CAS3) immune-staining (data not shown). We then tested combinations of different signaling molecules for various durations. […] Later, we determined that the WNT3A contribution was minimal, likely because WNT3A and CHIR99021 activate the same downstream signaling pathway (data not shown). At day 14, well-defined polarized neuroepithelium-like structures resembled neural tubes, with a nearly pure population of NESTIN+SOX2+ NPCs and expression of adherent junction markers (b-CATENIN and PKC1) and proliferation marker phosphohistone H3 (PH3) near the ventricular surface (data not shown). […] Upon spinning in SpinΩ, organoids developed into multi-layer stratified structures, composed of SOX2+NPCs, TBR2+ intermediate progenitor cells (IPCs), and CTIP2+ neurons (data not shown). With a small volume, it became affordable to supplement media with growth factors at later stages (data not shown).
To generate forebrain-specific organoids, human iPSC colonies were detached 7 days after passage with Collagenase Type IV, washed with fresh stem cell medium and cultured in a 15 ml conical tube. On day 1, detached and washed iPSC colonies were transferred to an Ultra-Low attachment 6-well plate (Corning Costar), containing 3 ml of stem cell medium (without FGF-2), plus 2 μM Dorsomorphine (Sigma) and 2 μM A83-01 (Tocris). On days 5-6, half of the medium was replaced with induction medium consisting of DMEM:F12, 1×N2 Supplement (Invitrogen), 10 μg/ml Heparin (Sigma), 1× Penicillin/Streptomycin, 1× Non-essential Amino Acids, 1× Glutamax, 4 ng/ml WNT-3A (R&D Systems), 1 μM CHIR99021 (Cellagentech), and 1 μM SB-431542 (Cellagentech). On day 7, organoids were embedded in Matrigel (BD Biosciences) and continued to grow in induction medium for 6 more days. On day 14, embedded organoids were mechanically dissociated from Matrigel by pipetting up and down onto the plate with a 5 ml pipette tip. Typically, 10-20 organoids were transferred to each well of a 12-well spinning bioreactor (FIGS. 1-11) containing differentiation medium, consisting of DMEM:F12, 1×N2 and B27 Supplements (Invitrogen), 1× Penicillin/Streptomycin, 1×2-Mercaptoenthanol, 1× Non-essential Amino Acids, 2.5 μg/ml Insulin (Sigma). […]

forebrain organoids [2] = assay: Long-term BPA treatment of forebrain organoids (days 14 to 28), relative VZ thickness; assay type: cell-based, human; settings: treatment from days 14 to 28; forebrain organoids in SpinΩ
Description: (§1) The apparent homogeneity of forebrain organoids, small volume per condition, and multi-well format of SpinΩ comprise a platform that is amenable to chemical compound testing. As a proof of principle, we tested the effect of Bisphenol A (BPA), which is commonly found in household plastic products and is known to affect rodent neural development.
Forebrain organoids were grown using the protocol described above. For the long-term BPA treatment experiment, forebrain organoids at day 14 from the same batch were distributed randomly into separate wells within SpinQ and treated with different concentrations of BPA (Sigma). BPA was dissolved in sequential dilutions in differentiation media with 0.05% methanol, which was also added in the control condition. Media containing BPA was replaced every other day until analysis on day 28. […] Quantification was conducted by investigators blind to culture conditions.
Organoids grown from the “intrinsic protocol” and forebrain protocol were immunostained for SOX2, TUJ1 and CTIP2 at days 14 and 28. […] The length for VZ and outer layer was measured in ImageJ™ software. […] Relative thicknesses for VZ, SVZ and CP were calculated by the ratio to total thickness from ventricular to pial surface.

[3] = test system: NPCs in forebrain organoids; assay: Acute BPA treatment of forebrain organoids (24 hr), EdU pulse-labeling and PH3 immunostaining; assay type: cell-based, human; settings: acute treatment with higher BPA concentrations for 24 hr
Description: as §1
For the acute BPA treatment experiment, forebrain organoids were grown to day 28 and treated with corresponding concentrations of BPA for 24 hr. At day 29, the culture media was replaced with fresh media and washed 3 times to remove residual BPA. Organoids were then pulsed with 10 μM EdU for 2 hr. The media was then replaced and organoids were washed 3 times with fresh media. At day 30, organoids were fixed for immunohistochemistry and EdU detection using Click-iT® EdU Alexa Fluor® 488 Imaging Kit (ThermoFisher C10337) according to the manufacturer's manual, followed by immunostaining for SOX2 and PH3. Images were acquired with a Zeiss' LSM 700 Confocal system at 25× magnification. Quantification was performed by counting the number of EdU and PH3+ nuclei within SOX2+ ventricular structures that were defined by neural tube-like morphology. EdU and PH3 densities were normalized to the area of ventricular structures measured in ImageJ software. Quantification was conducted by investigators blind to culture conditions.

[4] = test system: human developing cerebral cortex organoids; assay: Toxin screening of BPA in the 12-well culture system, proliferation of neuronal precursor cells; assay type: cell-based; settings: different concentrations of BPA
Description: Culture conditions were systemically tested to optimize protocols. Additionally, screening was performed to test the effects of Bisphenol A (BPA) on neurogenesis in the organoid system.
Toxin screening was performed using the 12-well culture system. Images of the effect of different concentrations of BPA on human developing cerebral cortex organoids were taken (data not shown).

Molecule: Cc1c[nH]c(-c2cnc(NCCNc3ccc(C#N)cn3)nc2-c2ccc(Cl)cc2Cl)n1 [CHIR99021]
- number of CAS3+ cells at day 14 (forebrain organoids [1]): drastically reduced

Molecule: CC(C)(c1ccc(O)cc1)c1ccc(O)cc1 [BPA, Bisphenol A]
- relative VZ thickness at day 28 (forebrain organoids [2]): dose-dependent decrease
- density of PH3+ NPCs [3]: decreased density
- density of EdU+ NPCs ([3]; then EdU pulse): decreased density
- proliferation rate of neuronal precursor cells in human organoids [4]: dose-dependent effect

Molecule: NC(=O)c1ccc(-c2nc(-c3ccc4c(c3)OCO4)c(-c3ccccn3)[nH]2)cc1 [SB-431542]
- number of CAS3+ cells at day 14 (forebrain organoids [1]): drastically reduced

B1: WNT3A: recombinant WNT3A protein (protein, UniProt P56704 19-352, looked up)
Protein Wnt-3a: SYPIWWSLAVGPQYSSLGSQPILCASIPGLVPKQLRFCRNYVEIMPSVAEGIKIGIQECQHQFRGRRWNCTTVHDSLAIFGPVLDKATRESAFVHAIASAGVAFAVTRSCAEGTAAICGCSSRHQGSPGKGWKWGGCSEDIEFGGMVSREFADARENRPDARSAMNRHNNEAGRQAIASHMHLKCKCHGLSGSCEVKTCWWSQPDFRAIGDFLKDKYDSASEMVVEKHRESRGWVETLRPRYTYFKVPTERDLVYYEASPNFCEPNPETGSFGTRDRTCNVSSHGIDGCDLLCCGRGHNARAERRREKCRCVFHWCCYVSCQECTRVYDVHTCK
- number of CAS3+ cells at day 14 (forebrain organoids [1]): drastically reduced
- contribution to the reduction of CAS3+ cells (forebrain organoids [1]; within the three-factor treatment, WNT3A and CHIR99021 activate the same downstream pathway): minimal
